Results reported in ChEMBL document CHEMBL5724803, “Viability screening in matched tumor and normal assay results for EUbOPEN Chemogenomics Library” (2024).

Test system: Colon organoid
Assay type: functional, Homo sapiens

Row | SMILES | Cell Viability Ratio
1 | Cc1nc(Cc2cccc(C(F)(F)F)c2)sc1-c1ccc(C(N)=O)nc1 [TP-024n] | 1.0424
2 | CN1C(=O)[C@@H](N2CCc3c(nn(Cc4ccccc4)c3Br)C2=O)COc2ccccc21 [TP-030-2] | 1.065
3 | Cc1ccc2[nH]c(CNCCCc3ccncc3)cc(=O)c2c1 [UCSF924NC] | 1.116
4 | Cc1ccc2nc(CNCCCOc3ccccc3)cc(O)c2c1 [UCSF924] | 1.046
5 | CNC(=O)c1ccccc1Nc1cc(Nc2ccc(N3CCOCC3)cc2OC)ncc1C(F)(F)F [VS-4718] | 0.4552
6 | O=C(NNS(=O)(=O)c1ccccc1)c1cc(-c2ccnnc2)ccc1F [WM-2474] | 1.138
7 | Nc1nc(NCc2ccccc2)nc(-c2cccc(CO)c2)n1 [ZINC32547799] | 1.205
